Experimental data reported in the CheMixHub viscosity set.
Values joined by “and” are separate entries in the source; they are usually repeats but may differ in a detail not shown here. Equal values may be shown once. ± gives the uncertainty stated by the source.

Assay: xn = mol fraction of the nth substance listed

CCC(C)=O + c1ccccc1
Settings	viscosity [mPa·s]
293.15 K, 101 kPa, x1 = 0.2	0.569 ± 0.015
293.15 K, 101 kPa, x1 = 0.4	0.511 ± 0.014
293.15 K, 101 kPa, x1 = 0.5	0.487 ± 0.013
293.15 K, 101 kPa, x1 = 0.6	0.471 ± 0.013
293.15 K, 101 kPa, x1 = 0.8	0.435 ± 0.012
298 K, 101.33 kPa, x2 = 0.1513	0.3919 ± 0.0054
298 K, 101.33 kPa, x2 = 0.2663	0.4141 ± 0.0057
298 K, 101.33 kPa, x2 = 0.2941	0.4175 ± 0.0057
298 K, 101.33 kPa, x2 = 0.4321	0.4408 ± 0.006
298 K, 101.33 kPa, x2 = 0.5597	0.4674 ± 0.0063
298 K, 101.33 kPa, x2 = 0.6057	0.4775 ± 0.0065
298 K, 101.33 kPa, x2 = 0.7302	0.5097 ± 0.0069
298 K, 101.33 kPa, x2 = 0.8777	0.5571 ± 0.0074
298.15 K, 101 kPa, x2 = 0.106	0.4072 ± 0.0044
298.15 K, 101 kPa, x2 = 0.197	0.4173 ± 0.0045
298.15 K, 101 kPa, x2 = 0.3	0.4324 ± 0.0046
298.15 K, 101 kPa, x2 = 0.4	0.4487 ± 0.0048
298.15 K, 101 kPa, x2 = 0.5	0.4672 ± 0.0049
298.15 K, 101 kPa, x2 = 0.615	0.4908 ± 0.0052
298.15 K, 101 kPa, x2 = 0.694	0.508 ± 0.0053
298.15 K, 101 kPa, x2 = 0.793	0.5355 ± 0.0056
298.15 K, 101 kPa, x2 = 0.895	0.5683 ± 0.0059
299.15 K, 101.3 kPa, x2 = 0.098	0.41 ± 0.011
299.15 K, 101.3 kPa, x2 = 0.198	0.425 ± 0.011
299.15 K, 101.3 kPa, x2 = 0.298	0.443 ± 0.012
299.15 K, 101.3 kPa, x2 = 0.398	0.455 ± 0.012
299.15 K, 101.3 kPa, x2 = 0.498	0.474 ± 0.013
299.15 K, 101.3 kPa, x2 = 0.599	0.497 ± 0.013
299.15 K, 101.3 kPa, x2 = 0.699	0.519 ± 0.014
299.15 K, 101.3 kPa, x2 = 0.799	0.546 ± 0.014
299.15 K, 101.3 kPa, x2 = 0.899	0.584 ± 0.015
303.15 K, 101 kPa, x1 = 0.1023	0.538 ± 0.004
303.15 K, 101 kPa, x1 = 0.2	0.498 ± 0.013
303.15 K, 101 kPa, x1 = 0.2042	0.509 ± 0.004
303.15 K, 101 kPa, x1 = 0.395	0.467 ± 0.004
303.15 K, 101 kPa, x1 = 0.4	0.454 ± 0.012
303.15 K, 101 kPa, x1 = 0.5	0.434 ± 0.012
303.15 K, 101 kPa, x1 = 0.5129	0.444 ± 0.004
303.15 K, 101 kPa, x1 = 0.6	0.42 ± 0.011
303.15 K, 101 kPa, x1 = 0.6822	0.42 ± 0.004
303.15 K, 101 kPa, x1 = 0.8	0.391 ± 0.011
303.15 K, 101 kPa, x1 = 0.853	0.396 ± 0.004
307.35 K, 101.33 kPa, x1 = 0.0925	0.501 ± 0.0092
307.35 K, 101.33 kPa, x1 = 0.2405	0.462 ± 0.0089
307.35 K, 101.33 kPa, x1 = 0.3178	0.446 ± 0.0088
307.35 K, 101.33 kPa, x1 = 0.4477	0.424 ± 0.0086
307.35 K, 101.33 kPa, x1 = 0.5084	0.41 ± 0.0085
307.35 K, 101.33 kPa, x1 = 0.616	0.394 ± 0.0084
307.35 K, 101.33 kPa, x1 = 0.7356	0.378 ± 0.0082
308.15 K, 101 kPa, x1 = 0.2	0.471 ± 0.013
308.15 K, 101 kPa, x1 = 0.4	0.431 ± 0.012
308.15 K, 101 kPa, x1 = 0.5	0.414 ± 0.011
308.15 K, 101 kPa, x1 = 0.6	0.401 ± 0.011
308.15 K, 101 kPa, x1 = 0.8	0.373 ± 0.01
318.15 K, 101 kPa, x1 = 0.2	0.421 ± 0.011
318.15 K, 101 kPa, x1 = 0.4	0.388 ± 0.01
318.15 K, 101 kPa, x1 = 0.5	0.373 ± 0.01
318.15 K, 101 kPa, x1 = 0.6	0.362 ± 0.01
318.15 K, 101 kPa, x1 = 0.8	0.339 ± 0.009

COC(C)=O + c1ccccc1
101 kPa
Settings	viscosity [mPa·s]
293.15 K, x1 = 0.5	0.48 ± 0.013
298.15 K, x1 = 0.0436	0.587 ± 0.005
298.15 K, x1 = 0.1504	0.55 ± 0.005
298.15 K, x1 = 0.2504	0.52 ± 0.004
298.15 K, x1 = 0.3483	0.494 ± 0.004
298.15 K, x1 = 0.441	0.472 ± 0.004
298.15 K, x1 = 0.4878	0.462 ± 0.004
298.15 K, x1 = 0.5512	0.449 ± 0.004
298.15 K, x1 = 0.6492	0.431 ± 0.004
298.15 K, x1 = 0.7483	0.415 ± 0.004
298.15 K, x1 = 0.8514	0.401 ± 0.004
298.15 K, x1 = 0.9486	0.389 ± 0.004
298.15 K, x2 = 0.1115	0.363 ± 0.004
298.15 K, x2 = 0.1916	0.374 ± 0.004
298.15 K, x2 = 0.293	0.388 ± 0.004
298.15 K, x2 = 0.3964	0.407 ± 0.004
298.15 K, x2 = 0.4965	0.429 ± 0.004
298.15 K, x2 = 0.6017	0.454 ± 0.005
298.15 K, x2 = 0.6991	0.482 ± 0.005
298.15 K, x2 = 0.7955	0.512 ± 0.005
298.15 K, x2 = 0.8946	0.548 ± 0.005
303.15 K, x1 = 0.5	0.428 ± 0.012
308.15 K, x1 = 0.0436	0.513 ± 0.004
308.15 K, x1 = 0.1504	0.485 ± 0.004
308.15 K, x1 = 0.2504	0.461 ± 0.004
308.15 K, x1 = 0.3483	0.441 ± 0.004
308.15 K, x1 = 0.441	0.423 ± 0.004
308.15 K, x1 = 0.4878	0.415 ± 0.004
308.15 K, x1 = 0.5	0.406 ± 0.011
308.15 K, x1 = 0.5512	0.405 ± 0.004
308.15 K, x1 = 0.6492	0.39 ± 0.004
308.15 K, x1 = 0.7483	0.377 ± 0.004
308.15 K, x1 = 0.8514	0.365 ± 0.004
308.15 K, x1 = 0.9486	0.356 ± 0.004
313.15 K, x2 = 0.1115	0.321 ± 0.004
313.15 K, x2 = 0.1916	0.33 ± 0.004
313.15 K, x2 = 0.293	0.339 ± 0.004
313.15 K, x2 = 0.3964	0.354 ± 0.004
313.15 K, x2 = 0.4965	0.37 ± 0.004
313.15 K, x2 = 0.6017	0.388 ± 0.004
313.15 K, x2 = 0.6991	0.407 ± 0.004
313.15 K, x2 = 0.7955	0.429 ± 0.004
313.15 K, x2 = 0.8946	0.455 ± 0.004

COCCOC + c1ccccc1
298.15 K, 101 kPa
Settings	viscosity [mPa·s]
x1 = 0.0878	0.571 ± 0.016
x1 = 0.1781	0.545 ± 0.015
x1 = 0.2708	0.524 ± 0.015
x1 = 0.3662	0.504 ± 0.014
x1 = 0.4643	0.484 ± 0.014
x1 = 0.5652	0.467 ± 0.014
x1 = 0.6691	0.45 ± 0.013
x1 = 0.7761	0.435 ± 0.013
x1 = 0.8864	0.42 ± 0.013

O=C(O)c1ccccc1 + c1ccccc1
viscosity
Settings	303.15 K	308.15 K	313.15 K	318.15 K
101 kPa, x1 = 0.0581	0.6414 ± 0.016 mPa·s	0.5991 ± 0.015 mPa·s	0.5625 ± 0.014 mPa·s	0.5267 ± 0.013 mPa·s
101 kPa, x1 = 0.105	–	0.6626 ± 0.017 mPa·s	0.622 ± 0.016 mPa·s	0.5832 ± 0.015 mPa·s
101.33 kPa, x1 = 0.0581	0.6414 ± 0.0045 mPa·s	0.5991 ± 0.0042 mPa·s	0.5625 ± 0.0039 mPa·s	0.5267 ± 0.0037 mPa·s
101.33 kPa, x1 = 0.05813	–	0.5991 ± 0.02 mPa·s	–	0.5267 ± 0.017 mPa·s
101.33 kPa, x1 = 0.06979	–	0.616 ± 0.02 mPa·s	–	0.5401 ± 0.018 mPa·s
101.33 kPa, x1 = 0.08477	–	0.6421 ± 0.021 mPa·s	–	0.56 ± 0.018 mPa·s
101.33 kPa, x1 = 0.105	–	0.6626 ± 0.0046 mPa·s and 0.6626 ± 0.022 mPa·s	0.622 ± 0.0044 mPa·s	0.5832 ± 0.0041 mPa·s and 0.5832 ± 0.019 mPa·s
101.33 kPa, x1 = 0.1232	–	–	–	0.61 ± 0.02 mPa·s
